Molecular target: Recombinant human PDK1 enzyme (aa 52-556) (Homo sapiens (Human), UniProt O15530)
Experiment: PDK1 kinase assay
Format: biochemical
Settings: in vitro kinase assay, His6-PDK1 (aa 52-556), PDKtide, P33-ATP
Method: The activity of the compounds according to the invention on the kinase PDK1 which inhibits the signal transduction pathway is determined in an in vitro kinase assay with recombinantly prepared protein:
Recombinant human PDK1 enzyme (aa 52-556) linked at its N-terminal end to His6 is isolated from baculovirus-infected insect cells. Purified enzyme may be obtained for example from the University of Dundee, Scotland. The following components are combined in a well of a 96-well round-based dish (Greiner bio-one, No. 650101): • 15 μL of compound to be tested in varying concentrations (e.g. starting at 10 μM, and diluted in steps of 1:5) in APT buffer (50 mM Tris/Cl pH 7.5; 0.05% β-mercaptoethanol; 10 mM Mg-acetate; 0.0166% Tween 20; 3.33% DMSO) • 15 μL His6-PDK1 (aa 52-556) 3.33 ng/well) and PDKtide ([…]), synthesised by Pepceuticals Limited, Nottingham, United Kingdom; 25 μM final concentration); His6-PDK1 and PDKtide are together diluted accordingly in assay buffer (50 mM tris pH 7.5, 0.05% β-mercaptoethanol, 10 mM Mg-acetate); PDKtide is present in this mixture as an 83.3 μM solution. These 30 μl are routinely incubated for 30 min at RT. • 20 μL ATP solution (25 μM ATP with 1.0 μCi/well gamma-P33-ATP). The final concentration of Tween 20 is 0.005%.
The reaction is started by adding the ATP solution and the mixture is incubated for 90 min at RT. At the start of the reaction the dishes are shaken gently. The reaction is stopped by the addition of 50 μL/well of 500 mM phosphoric acid (H3PO4) and incubated for about 20 min at RT. The precipitate is transferred by harvesting onto filter plates (96-well microtitre filter plate: UniFilter GF/C; Perkin Elmer; No. 6005174), then washed 6 times with 50 mM H3PO4 and dried at 60° C. Then the plate is stuck down with sealing tape, 25 μL/well of scintillation solution (Microscint 0; Perkin Elmer; No. 6013611) are added and the amount of P33 precipitated is measured using the Wallac Betacounter. The measured data are evaluated using Graphpad Prism software.

Chain of Recombinant human PDK1 enzyme (aa 52-556) (O15530 52-556): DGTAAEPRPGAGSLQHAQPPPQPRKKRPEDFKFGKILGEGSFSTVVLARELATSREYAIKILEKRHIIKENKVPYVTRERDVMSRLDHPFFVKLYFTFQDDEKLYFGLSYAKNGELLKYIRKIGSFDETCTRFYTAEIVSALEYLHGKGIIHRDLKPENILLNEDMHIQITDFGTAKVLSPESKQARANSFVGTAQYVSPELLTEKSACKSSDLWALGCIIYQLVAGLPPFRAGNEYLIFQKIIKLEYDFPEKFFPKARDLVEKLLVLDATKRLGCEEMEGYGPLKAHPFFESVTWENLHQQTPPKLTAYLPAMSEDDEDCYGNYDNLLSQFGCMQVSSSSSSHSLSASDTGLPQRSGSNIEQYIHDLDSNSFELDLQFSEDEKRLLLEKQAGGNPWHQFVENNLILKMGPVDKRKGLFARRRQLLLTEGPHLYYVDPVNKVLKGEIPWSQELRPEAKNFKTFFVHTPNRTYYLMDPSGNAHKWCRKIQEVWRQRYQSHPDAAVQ

SMILES	IC50 [nM]
CN1CCC(Nc2cnc3ccc(C#CCNC(=O)c4cncn(Cc5ccc(F)c(F)c5)c4=O)cc3c2)CC1 [I-70]	1
CC(c1cc(F)c(F)c(F)c1)n1cccc(C(=O)NCC#Cc2ccc3nccc(OC[C@H]4CCN(C)C4)c3c2)c1=O (stereo partly drawn) [I-125.11]	4
CN1CCN(C(=O)c2cnc3ccc(C#CCNC(=O)c4cncn(Cc5ccc(F)c(F)c5)c4=O)cc3c2)CC1 [II-84]	405
CN(c1ncnc2ccc(C#CCNC(=O)c3cncn(Cc4ccc(F)c(F)c4)c3=O)cc12)C1CC1 [II-20]	13
CNC(=O)c1cnc2ccc(C#CCNC(=O)c3cncn(Cc4ccc(F)c(F)c4)c3=O)cc2c1 [II-72]	45
O=C(NCC#Cc1ccc2nccc(OCC3CCOC3)c2c1)c1cccn(C(CO)c2ccc(F)c(F)c2)c1=O (stereo not drawn) [I-125.4]	12
CCN1CCN(C(=O)c2cnc3ccc(C#CCNC(=O)c4cncn(Cc5ccc(F)c(F)c5)c4=O)cc3c2)CC1 [II-78]	402
CN1CCN(c2cnc3ccc(C#CCNC(=O)c4cncn(Cc5ccc(F)c(F)c5)c4=O)cc3n2)CC1 [I-24]	117
O=C(NCC#Cc1ccc2ncnc(NCC(O)c3ccccc3)c2c1)c1cncn(Cc2ccc(F)c(F)c2)c1=O (stereo not drawn) [II-13]	184
CN1CCCC(Nc2cnc3ccc(C#CCNC(=O)c4cncn(Cc5ccc(F)c(F)c5)c4=O)cc3n2)C1 (stereo not drawn) [I-21]	149
NC(=O)CCNc1ncnc2ccc(C#CCNC(=O)c3cccn(Cc4ccc(F)c(F)c4)c3=O)cc12 [II-33]	79
CN(CCc1ccccc1)c1c(C#N)cnc2ccc(C#CCNC(=O)c3cccn(Cc4ccc(F)c(F)c4)c3=O)cc12 [II-106]	414
CN1CCCN(c2ncnc3ccc(C#CCNC(=O)c4cccn(Cc5ccc(F)c(F)c5)c4=O)cc23)CC1 [II-29]	156
COCCN1CCC(Nc2cnc3ccc(C#CCNC(=O)c4cncn(Cc5ccc(F)c(F)c5)c4=O)cc3c2)CC1 [I-73]	4
CN(C)CCN(C)c1cnc2ccc(C#CCNC(=O)c3cncn(Cc4ccc(F)c(F)c4)c3=O)cc2n1 [I-11]	88
O=C(NCC#Cc1ccc2nccc(OC[C@@H]3CCCN(CCN4CCOCC4)C3)c2c1)c1cccn(Cc2cc(F)c(F)c(F)c2)c1=O [I-125.19]	3
CN1CCN(CCCOc2ccnc3ccc(C#CCNC(=O)c4cncn(Cc5ccc(F)c(F)c5)c4=O)cc23)CC1 [I-100]	14
CN(C)CCNc1cnc2ccc(C#CCNC(=O)c3cncn(Cc4ccc(F)c(F)c4)c3=O)cc2n1 [I-12]	35
Cc1c(C#CCNC(=O)c2cncn(Cc3ccc(F)c(F)c3)c2=O)ccc2ncc(C(=O)O)cc12 [I-83]	62
CN1CCC(Oc2ccnc3ccc(C#CCNC(=O)c4cncn(Cc5ccc(F)c(F)c5)c4=O)cc23)CC1 [I-111]	29
COCCN1CCC(Nc2cnc3ccc(C#CCNC(=O)c4cccn([C@@H](CO)c5ccc(F)c(F)c5)c4=O)cc3n2)CC1 [I-48]	3
CCN(CC)c1c(C#N)cnc2ccc(C#CCNC(=O)c3cccn(Cc4ccc(F)c(F)c4)c3=O)cc12 [II-100]	276
Cc1c(C#CCNC(=O)c2cncn(Cc3ccc(F)c(F)c3)c2=O)ccc2ncc(-c3ccccc3)cc12 [I-79]	80
CN1CCC(Nc2cnc3ccc(C#CCNC(=O)c4cncn(Cc5ccc(F)c(F)c5)c4=O)cc3n2)C1 (stereo not drawn) [I-16]	33
CN(C)CC(C)(C)COc1ccnc2ccc(C#CCNC(=O)c3cncn(Cc4ccc(F)c(F)c4)c3=O)cc12 [I-102]	13
Cc1ccnc2ccc(C#CCNC(=O)c3cncn(Cc4ccc(F)c(F)c4)c3=O)cc12 [II-92]	56
CN(Cc1ccccc1)c1c(C#N)cnc2ccc(C#CCNC(=O)c3cccn(Cc4ccc(F)c(F)c4)c3=O)cc12 [II-98]	184

SMILES	IC50 [nM]
O=C(NCC#Cc1ccc2ncc(N[C@H]3CC[C@H](N4CCOCC4)CC3)nc2c1)c1cncn(Cc2ccc(F)c(F)c2)c1=O [I-40]	2
O=C(NCC#Cc1ccc2nccc(-c3cc[nH]c3)c2c1)c1cncn(Cc2ccc(F)c(F)c2)c1=O [II-88]	19
O=C(NCC#Cc1ccc2ncc(NC3CCN(C4COC4)CC3)nc2c1)c1cncn(Cc2ccc(F)c(F)c2)c1=O [I-56]	3
CCOc1ccnc2ccc(C#CCNC(=O)c3cncn(Cc4ccc(F)c(F)c4)c3=O)cc12 [I-95]	33
C[C@H](c1ccc(F)c(F)c1)n1cccc(C(=O)NCC#Cc2ccc3ncc(NC4CCN(C)CC4)nc3c2)c1=O [I-30]	2
CC(N)CCOc1ccnc2ccc(C#CCNC(=O)c3cccn(Cc4ccc(F)c(F)c4)c3=O)cc12 (stereo not drawn) [I-125.7]	32
CN(C)CCCNC(=O)c1cnc2ccc(C#CCNC(=O)c3cncn(Cc4ccc(F)c(F)c4)c3=O)cc2c1 [II-68]	20
CC(c1cc(F)c(F)c(F)c1)n1cccc(C(=O)NCC#Cc2ccc3nccc(OC[C@@H]4CCCN(C)C4)c3c2)c1=O (stereo partly drawn) [I-125.18]	2
O=C(NCC#Cc1ccc2ncc(N[C@H]3CC[C@H](N4CCOCC4)CC3)nc2c1)c1cccn([C@H](CO)c2cccc(F)c2)c1=O [I-64]	5
CN(C)CCCCOc1ccnc2ccc(C#CCNC(=O)c3cncn(Cc4ccc(F)c(F)c4)c3=O)cc12 [I-125.3]	5
CCN1CCC(Nc2cnc3ccc(C#CCNC(=O)c4cccn([C@H](CO)c5cccc(F)c5)c4=O)cc3c2)CC1 [I-76]	2
O=C(NCC#Cc1ccc2ncnc(N3CC[C@H](O)C3)c2c1)c1cccn(Cc2ccc(F)c(F)c2)c1=O [II-31]	114
CN(C)CCCOc1ccnc2ccc(C#CCNC(=O)c3cccn(Cc4ccc(F)c(F)c4)c3=O)cc12 [I-93]	12
CNc1ncnc2ccc(C#CCNC(=O)c3cccn(Cc4ccsc4)c3=O)cc12 [II-26]	199
Cc1c(C#CCNC(=O)c2cncn(Cc3ccc(F)c(F)c3)c2=O)ccc2ncc(C(=O)N(C)C)cc12 [II-70]	185
O=C(NCC#Cc1ccc2ncnc(C3=CCNCC3)c2c1)c1cncn(Cc2ccc(F)c(F)c2)c1=O [II-67]	96
CN(C)CCOc1ccnc2ccc(C#CCNC(=O)c3cncn(Cc4ccc(F)c(F)c4)c3=O)cc12 [I-99]	36
O=C(NCC#Cc1ccc2ncc(C(=O)N3CCNCC3)cc2c1)c1cncn(Cc2ccc(F)c(F)c2)c1=O [II-83]	286
CN1CCCC(NC(=O)c2cnc3ccc(C#CCNC(=O)c4cncn(Cc5ccc(F)c(F)c5)c4=O)cc3c2)C1 (stereo not drawn) [II-80]	64
CN(C)CCCNc1cnc2ccc(C#CCNC(=O)c3cncn(Cc4ccc(F)c(F)c4)c3=O)cc2n1 [I-10]	11
CNc1ncnc2ccc(C#CCNC(=O)c3cccn(Cc4ccc(F)c(F)c4)c3=O)c(C)c12 [I-3]	8
O=C(NCC#Cc1ccc2ncc(CC3CCNCC3)nc2c1)c1cncn(Cc2ccc(F)c(F)c2)c1=O [I-66]	654
Cc1n[nH]cc1-c1ccnc2ccc(C#CCNC(=O)c3cncn(Cc4ccc(F)c(F)c4)c3=O)cc12 [II-93]	24
CC1CN(C)CCC1Nc1ncnc2ccc(C#CCNC(=O)c3cncn(Cc4ccc(F)c(F)c4)c3=O)cc12 (stereo not drawn) [II-25]	126
O=C(NCC#Cc1ccc2ncc(N[C@H]3CC[C@H](N4CCOCC4)CC3)nc2c1)c1ccnn(Cc2ccc(F)c(F)c2)c1=O [I-60]	7
CN(C)c1ncnc2ccc(C#CCNC(=O)c3cccn(Cc4cc[nH]n4)c3=O)cc12 [II-42]	697
CNC(=O)c1cnc2ccc(C#CCNC(=O)c3cncn(Cc4ccc(F)c(F)c4)c3=O)c(C)c2c1 [II-69]	21
